Experimental data: ChEMBL document CHEMBL1137879, “The development of new bicyclic pyrazole-based cytokine synthesis inhibitors” (Bioorg Med Chem Lett, 2004)

Tests used:
THP-1 = assay: Concentration required to inhibit production of Tumor necrosis factor, alpha in LPS-stimulated human monocytic cells (THP-1); type: functional, cell-based
[1] = target: Mitogen-activated protein kinase 14 (Homo sapiens, UniProt Q16539); assay: Inhibition of human Mitogen-activated protein kinase p38 alpha
Sequence of Mitogen-activated protein kinase 14 (Q16539 whole entry): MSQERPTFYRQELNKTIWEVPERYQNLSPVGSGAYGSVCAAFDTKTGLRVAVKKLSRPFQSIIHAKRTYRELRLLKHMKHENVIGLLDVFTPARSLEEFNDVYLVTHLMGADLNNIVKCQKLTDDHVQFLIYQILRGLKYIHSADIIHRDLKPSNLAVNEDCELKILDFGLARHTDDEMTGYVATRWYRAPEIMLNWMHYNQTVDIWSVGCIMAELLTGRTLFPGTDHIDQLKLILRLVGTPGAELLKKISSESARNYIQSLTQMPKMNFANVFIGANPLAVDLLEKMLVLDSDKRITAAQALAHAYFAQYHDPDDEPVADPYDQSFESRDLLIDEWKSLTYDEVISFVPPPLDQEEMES

SMILES	IC50 (THP-1) [nM]	IC50 [1] [nM]
Fc1ccc(-c2c(-c3ccnc(Oc4ccccc4)n3)nn3c2OCCC3)cc1	> 10000	6600
Fc1ccc(-c2c(-c3ccnc(Oc4ccccc4)n3)nn3c2OCC3)cc1	300	2200
C[C@@H](Nc1nccc(-c2nn3c(c2-c2ccc(F)cc2)OCC3)n1)c1ccccc1	> 2000	11200
COC[C@@H](C)Nc1nccc(-c2nn3c(c2-c2ccc(F)cc2)OCC3)n1	1700	280
CCOCn1nnc(-c2ccncc2)c1-c1ccc(F)cc1		310
Oc1[nH]nc(-c2ccncc2)c1-c1ccc(F)cc1	3100	320
Fc1ccc(-c2c(-c3ccncc3)nn3c2OCCC3)cc1	3100	460
CC[C@@H](C)Nc1nccc(-c2nn3c(c2-c2ccc(F)cc2)OCC3)n1	80	360
